Reference: patent US6737383B1, “Herbicidal oxadiazolidines” (priority 1999, dated 2004)

Columns and labels:
surinam grass = assay: Test B pre/postemergence surinam grass; type: in vivo, Brachiaria decumbens
In short: (§1)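 Test chemicals in a non-phytotoxic solvent mixture with surfactant were sprayed preemergence onto planted seeds and postemergence onto plants 2 to 18 cm tall (1- to 4-leaf stage). After twelve to sixteen days in a greenhouse, injury was visually rated against untreated controls from 0 (no effect) to 10 (complete control).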

blackgrass = assay: Test B pre/postemergence blackgrass; type: in vivo, Alopecurus myosuroides
In short: as §1

morningglory = assay: Test B pre/postemergence morningglory; type: in vivo, Ipomoea hederacea
In short: as §1

rape = assay: Test B pre/postemergence rape; type: in vivo, Brassica napus
In short: as §1

giant foxtail = assay: Test B pre/postemergence giant foxtail; type: in vivo, Setaria faberii
Source text: (§2) Seeds of bedstraw (Galium aparine), blackgrass (Alopecurus myosuroides), surinam grass (Brachiaria decumbens), cocklebur (Xanthium strumarium), corn (Zea mays), crabgrass (Digitaria sanguinalis), giant foxtail (Setaria faberii), morningglory (Ipomoea hederacea), pigweed (Amaranthus retroflexus), rape (Brassica napus), soybean (Glycine max), sugar beet (Beta vulgaris), velvetleaf (Abutilon theophrasti), wheat (Triticum aestivum), wild oat (Avena fatua) and purple nutsedge (Cyperus rotundus) tubers were planted and treated preemnergence with test chemicals formulated in a non-phytotoxic solvent mixture which included a surfactant.
(§3) At the same time, these crop and weed species were also treated with postemergence applications of test chemicals formulated in the same manner. Plants ranged in height from 2 to 18 cm (1- to 4-leaf stage) for postemergence treatments. Plant species in the flood test consisted of rice (Oryza sativa), smallflower flatsedge (Cyperus difformis), duck salad (Heteranthera limosa) and bamyardgrass (Echinochloa crus-galli) grown to the 2-leaf stage for testing. Treated plants and controls were maintained in a greenhouse for twelve to sixteen days, after which all species were compared to controls and visually evaluated. Plant response ratings, summarized in Table B, are based on a scale of 0 to 10 where 0 is no effect and 10 is complete control. A dash (−) response means no test result.

bedstraw = assay: Test B pre/postemergence bedstraw; type: in vivo, Galium aparine
In short: as §1

soybean = assay: Test B pre/postemergence soybean; type: in vivo, Glycine max
Source text: as §2, §3

velvetleaf = assay: Test B pre/postemergence velvetleaf; type: in vivo, Abutilon theophrasti
In short: as §1

corn = assay: Test B pre/postemergence corn; type: in vivo, Zea mays
In short: as §1

pigweed = assay: Test B pre/postemergence pigweed; type: in vivo, Amaranthus retroflexus
In short: as §1

cocklebur = assay: Test B pre/postemergence cocklebur; type: in vivo, Xanthium strumarium
In short: as §1

wild oat = assay: Test B pre/postemergence wild oat; type: in vivo, Avena fatua
In short: as §1

sugar beet = assay: Test B pre/postemergence sugar beet; type: in vivo, Beta vulgaris
Source text: as §2, §3

crabgrass = assay: Test B pre/postemergence crabgrass; type: in vivo, Digitaria sanguinalis
In short: as §1

wheat = assay: Test B pre/postemergence wheat; type: in vivo, Triticum aestivum
In short: as §1

purple nutsedge = assay: Test B pre/postemergence purple nutsedge; type: in vivo, Cyperus rotundus
In short: as §1

[1] = Postemergence, Rate 125 g/ha, scale of 0 to 10 where 0 is no effect and 10 is complete control
[2] = Preemergence, Rate 62 g/ha, scale 0 to 10 (0 no effect, 10 complete control)
[3] = Preemergence, Rate 125 g/ha, 0 is no effect, 10 is complete control
[4] = Preemergence, Rate 250 g/ha, scale 0 to 10, 0 is no effect, 10 is complete control
[5] = Preemergence, Rate 500 g/ha, scale 0 to 10 (0 no effect, 10 complete control)
[6] = Rate 62 g/ha, Postemergence, scale of 0 to 10 where 0 is no effect and 10 is complete control
[7] = Rate 250 g/ha, Postemergence, scale 0 to 10, 0 is no effect, 10 is complete control
[8] = Rate 500 g/ha, Postemergence, scale 0 to 10

CC(C)N(C(=O)n1oc(=O)n(C(C)c2ccccc2)c1=O)c1ccc(F)cc1 (stereo not shown) [Compound 134]
B. signalgrass plant response rating (surinam grass; [1]): 0
B. signalgrass plant response rating (surinam grass; [2]): 0
B. signalgrass plant response rating (0 to 10 scale) (surinam grass; [3]): 2
B. signalgrass plant response rating (surinam grass; [4]): 6
B. signalgrass plant response rating (surinam grass; [5]): 8
B. signalgrass plant response rating (surinam grass; [6]): 0
Plant response rating, B. signalgrass (surinam grass; [7]): 0
B. signalgrass plant response rating (surinam grass; Rate 500 g/ha, Postemergence, scale of 0 to 10 where 0 is no effect and 10 is complete control): 2
Blackgrass plant response rating (blackgrass; [1]): 0
Blackgrass plant response rating (blackgrass; [2]): 0
Blackgrass plant response rating (0 to 10 scale) (blackgrass; [3]): 0
Blackgrass plant response rating (blackgrass; [4]): 2
Blackgrass plant response rating (blackgrass; [5]): 2
Blackgrass plant response rating (blackgrass; [6]): 0
Plant response rating, Blackgrass (blackgrass; [7]): 0
Blackgrass plant response rating (blackgrass; [8]): 7
Morningglory plant response rating (morningglory; [1]): 6
Morningglory plant response rating (morningglory; [2]): 0
Morningglory plant response rating (0 to 10 scale) (morningglory; [3]): 0
Morningglory plant response rating (morningglory; [4]): 0
Morningglory plant response rating (morningglory; [5]): 1
Morningglory plant response rating (morningglory; [6]): 5
Plant response rating, Morningglory (morningglory; [7]): 8
Morningglory plant response rating (morningglory; [8]): 8
Rape plant response rating (rape; [1]): 0
Rape plant response rating (rape; [2]): 0
Rape plant response rating (0 to 10 scale) (rape; [3]): 0
Rape plant response rating (rape; [4]): 0
Rape plant response rating (rape; [5]): 6
Rape plant response rating (rape; [6]): 0
Plant response rating, Rape (rape; [7]): 0
Rape plant response rating (rape; [8]): 0
Giant foxtail plant response rating (giant foxtail; [1]): 0
Giant foxtail plant response rating (giant foxtail; [2]): 6
Giant foxtail plant response rating (0 to 10 scale) (giant foxtail; [3]): 9
Giant foxtail plant response rating (giant foxtail; [4]): 10
Giant foxtail plant response rating (giant foxtail; [5]): 10
Giant foxtail plant response rating (giant foxtail; [6]): 0
Plant response rating, Giant foxtail (giant foxtail; [7]): 0
Giant foxtail plant response rating (giant foxtail; [8]): 3
Bedstraw plant response rating (bedstraw; [1]): 4
Bedstraw plant response rating (bedstraw; [2]): 0
Bedstraw plant response rating (0 to 10 scale) (bedstraw; [3]): 0
Bedstraw plant response rating (bedstraw; [4]): 0
Bedstraw plant response rating (bedstraw; [5]): 3
Bedstraw plant response rating (bedstraw; [6]): 4
Plant response rating, Bedstraw (bedstraw; [7]): 4
Soybean plant response rating (soybean; [1]): 1
Soybean plant response rating (soybean; [2]): 0
Soybean plant response rating (0 to 10 scale) (soybean; [3]): 0
Soybean plant response rating (soybean; [4]): 0
Soybean plant response rating (soybean; [5]): 0
Soybean plant response rating (soybean; [6]): 1
Plant response rating, Soybean (soybean; [7]): 1
Soybean plant response rating (soybean; [8]): 1
Velvetleaf plant response rating (velvetleaf; [1]): 0
Velvetleaf plant response rating (velvetleaf; [2]): 0
Velvetleaf plant response rating (0 to 10 scale) (velvetleaf; [3]): 0
Velvetleaf plant response rating (velvetleaf; [4]): 2
Velvetleaf plant response rating (velvetleaf; [5]): 7
Velvetleaf plant response rating (velvetleaf; [6]): 0
Plant response rating, Velvetleaf (velvetleaf; [7]): 0
Velvetleaf plant response rating (velvetleaf; [8]): 4
Corn plant response rating (corn; [1]): 0
Corn plant response rating (corn; [2]): 0
Corn plant response rating (0 to 10 scale) (corn; [3]): 0
Corn plant response rating (corn; [4]): 0
Corn plant response rating (corn; [5]): 0
Corn plant response rating (corn; [6]): 0
Plant response rating, Corn (corn; [7]): 0
Corn plant response rating (corn; [8]): 0
Redroot pigweed plant response rating (pigweed; [1]): 0
Redroot pigweed plant response rating (pigweed; [2]): 0
Redroot pigweed plant response rating (0 to 10 scale) (pigweed; [3]): 0
Redroot pigweed plant response rating (pigweed; [4]): 0
Redroot pigweed plant response rating (pigweed; [5]): 2
Redroot pigweed plant response rating (pigweed; [6]): 0
Plant response rating, Redroot pigweed (pigweed; [7]): 0
Redroot pigweed plant response rating (pigweed; [8]): 0
Cocklebur plant response rating (cocklebur; [1]): 0
Cocklebur plant response rating (cocklebur; [2]): 0
Cocklebur plant response rating (0 to 10 scale) (cocklebur; [3]): 0
Cocklebur plant response rating (cocklebur; [4]): 0
Cocklebur plant response rating (cocklebur; [5]): 0
Cocklebur plant response rating (cocklebur; [6]): 0
Plant response rating, Cocklebur (cocklebur; [7]): 0
Cocklebur plant response rating (cocklebur; [8]): 1
Wild oats plant response rating (wild oat; [1]): 0
Wild oats plant response rating (wild oat; [2]): 0
Wild oats plant response rating (0 to 10 scale) (wild oat; [3]): 0
Wild oats plant response rating (wild oat; [4]): 2
Wild oats plant response rating (wild oat; [5]): 2
Wild oats plant response rating (wild oat; [6]): 0
Plant response rating, Wild oats (wild oat; [7]): 0
Wild oats plant response rating (wild oat; [8]): 0
Sugarbeets plant response rating (sugar beet; [1]): 0
Sugarbeets plant response rating (sugar beet; [2]): 0
Sugarbeets plant response rating (0 to 10 scale) (sugar beet; [3]): 2
Sugarbeets plant response rating (sugar beet; [4]): 4
Sugarbeets plant response rating (sugar beet; [5]): 7
Sugarbeets plant response rating (sugar beet; [6]): 0
Plant response rating, Sugarbeets (sugar beet; [7]): 0
Sugarbeets plant response rating (sugar beet; [8]): 2
Crabgrass plant response rating (crabgrass; [1]): 0
Crabgrass plant response rating (crabgrass; [2]): 2
Crabgrass plant response rating (0 to 10 scale) (crabgrass; [3]): 6
Crabgrass plant response rating (crabgrass; [4]): 9
Crabgrass plant response rating (crabgrass; [5]): 9
Crabgrass plant response rating (crabgrass; [6]): 0
Plant response rating, Crabgrass (crabgrass; [7]): 4
Crabgrass plant response rating (crabgrass; [8]): 9
Wheat plant response rating (wheat; [1]): 0
Wheat plant response rating (wheat; [2]): 0
Wheat plant response rating (0 to 10 scale) (wheat; [3]): 0
Wheat plant response rating (wheat; [4]): 0
Wheat plant response rating (wheat; [5]): 0
Wheat plant response rating (wheat; [6]): 0
Plant response rating, Wheat (wheat; [7]): 0
Wheat plant response rating (wheat; [8]): 0
Nutsedge plant response rating (purple nutsedge; [1]): 0
Nutsedge plant response rating (purple nutsedge; [2]): 0
Nutsedge plant response rating (0 to 10 scale) (purple nutsedge; [3]): 0
Nutsedge plant response rating (purple nutsedge; [4]): 0
Nutsedge plant response rating (purple nutsedge; [5]): 0
Nutsedge plant response rating (purple nutsedge; [6]): 0
Plant response rating, Nutsedge (purple nutsedge; [7]): 0
Nutsedge plant response rating (purple nutsedge; [8]): 0
